In patent US20250064724A1, “MODULAR FIELD-STABLE BIO-ARTIFICIAL BLOOD SUBSTITUTE” (VIRGINIA COMMONWEALTH UNIVERSITY, priority 2021, published 2025):

Assays:
[1] = tested on: platelet IIb/IIIa receptor; details: in vivo
Excerpt: The hypocoagulable state and functional hypofibrinogenemia that exists immediately after severe blood loss and PEG-20 k resuscitation is mitigated by the concurrent addition of reconstituted lyophilized human fibrinogen (RiaSTAP®). The effects of severe blood loss after hemorrhage leads to direct depletion of clotting factors including fibrinogen. Furthermore, resuscitation with PEG-20 k IV solution causes rapid and long acting volume expansion by the osmotic movement of isotonic fluid from the intracellular and interstitial spaces back into the intravascular space, which further dilutes fibrinogen concentrations. […] Together, these forces tend to dilute out plasma fibrinogen concentrations that likely contribute to both the transient hypocoagulable state and the functional hypofibrinogenemia seen after PEG-20 k resuscitation in severe blood loss. Therefore, it makes sense that a simple add back of fibrinogen to the system after PEG-20 k IV solution resuscitation will correct the defect and improve coagulation and platelet function. […]
Changes in coagulation and platelet function is measured in the controlled lethal shock model in adult anesthetized rats in groups that receive PEG-20 k IV solution alone and those that receive PEG-20 k IV solution and supplemental human fibrinogen (200 mg/kg, IV, in 300 μl LR). […]

[2] = tested on: nitric oxide synthase (NOS); details: cited from earlier work; for blockade of the L-Arginine effect in crystalloid resuscitation: competitive NOS inhibitors
anesthetized rats [3] = details: 300 mg/kg L-Arginine with 6.8 ml/kg HBOC-201 IV, listed as L-Arg
Excerpt: This hypertension is believed due to the local scavenging of nitric oxide in the vessel wall. As the normal vasodilator tone produced by basal nitric oxide is removed by the HBOC hemoglobin, the vasoconstrictor tone now prevails and the blood pressure rises secondary to vasoconstriction of the resistance vessels.
Studies were designed to test how nitric oxide substrate loading before HBOC prevents or attenuates the NO scavenging effects of the HBOC on physiological, biochemical, and survival outcomes.

shocked rats [4] = assay: Example 3: PEG-20 k and delayed or nitric oxide modified HBOC in rodent lethal hemorrhagic shock; format: in vivo, rat; details: Example 3, present tense
Protocol: Rats are bled to 35 mmHg and held there until lactate reaches 9-10 mM, at which time, LVR solutions are given to resuscitate them. Thirty minutes after resuscitation, another 10% blood volume is removed and the plasma component is immediately separated and given back. A loop of distal ileum is exposed and a 1 cm enterotomy is made along the anti-mesenteric border to access the mucosal surface for hourly recordings of capillary blood flow by Orthogonal Polarization Spectral Imaging (OPSI) and for biopsies of bowel mucosa at various times before. The biopsies are used for histological analysis and for nitric oxide metabolism studies ex-vivo in a tissue culture system.
The albumin solution is a control for both the protein and oncotic effects of the HBOC per se and for the delayed volume administration at 2 and 4 hours after the initial PEG-20 k resuscitation. The total volume infusions for these studies is maintained at 6.8 ml/kg to remain in the low volume range (10% estimated blood volume). All surgical preparations are sterile so any animals surviving after 5 hours from resuscitation can be recovered the next day. N=10 rats per group. […]
In both Part 1 and Part 2, the primary measured outcomes include the rate of oxygen debt repayment on the first operative day and the re-accumulation of new oxygen debt the following days in rats that survive the initial 5-hour intra-operative observation period. […] Other secondary outcomes measured in each experiment include MAP, blood labs, intestinal microcirculation measured with orthogonal polarization spectral imaging (OPSI) through a small enterotomy in the distal ileum, plasma Th1 cytokines, terminal bowel histology analysis, and subject survival time. Finally, local tissue production of nitric oxide, nitrosothiols, and nitric oxide metabolites is assessed from serial bowel mucosa biopsies using incubations of tissue in a Dubanoff metabolic incubator and a Sievers-Style chemiluminescence NO analyzer.

shocked rats [5] = assay: Example 4: fibrinogen add back after PEG-20 k resuscitation, controlled and uncontrolled hemorrhage in rats; format: in vivo, rat; details: fibrinogen after PEG-20 k IV solution, controlled or uncontrolled hemorrhagic shock
Protocol: Changes in coagulation and platelet function is measured in the controlled lethal shock model in adult anesthetized rats in groups that receive PEG-20 k IV solution alone and those that receive PEG-20 k IV solution and supplemental human fibrinogen (200 mg/kg, IV, in 300 μl LR). The control group also receives 300 ul LR without RiaSTAP®. Samples of whole rat blood (1.0-ml) are taken at baseline and at various times after resuscitation for thromboelastography (TEG) analysis of coagulation and platelet function. Other assays are done to measure fibrinogen levels, intrinsic and extrinsic coagulation pathway coagulation, and platelet mapping studies are conducted to answer some mechanistic questions about platelet function defects. Samples are collected out to 4 hours, which is the time when coagulation and platelet function begins to return to baseline levels after PEG-20 k resuscitation. Each group uses 10 adult Sprague-Dawley rats.
Coagulation and platelet function outcomes are tested by using a clinically relevant model of mixed polytrauma hemorrhagic shock that involves severe bleeding from both controllable and uncontrollable sources. Our lab has developed a rodent model of severe hemorrhagic shock where tail bleeding (controlled source) is combined with blood loss from an abdominal penetrating injury to the spleen (splenic laceration). […]

anesthetized rats [6] = details: literature reference (22); cited from earlier work

## polyethylene glycol [PEG-20 k]
[1]
  coagulopathy on TEG: minor coagulopathy on TEG
  time when coagulation and platelet function begins to return to baseline levels: 4 h

## N=C(N)NCCC[C@H](N)C(=O)O [L-Arginine]
[2]; severe hemorrhagic shock, earlier work of the lab (20)
  crystalloid resuscitation outcome with L-Arginine: dramatically improved
Anesthetized rats [3]
  effect of co-administered L-Arginine on the blood pressure response to HBOC: caused vasodilatation that caused the blood pressure to drop
Shocked rats [4]; after PEG-20 k
  resuscitation outcome with L-Arginine before HBOC: Improvements are seen

## N=C(N)NCCC[C@@H](N)C(=O)O (racemic) [D-Arginine]
[2]
  blockade of the L-Arginine effect in crystalloid resuscitation: blocked
Shocked rats [4]
  blockade of the L-Arginine effect with HBOC: this effect is blocked

## fibrinogen
Shocked rats [5]
  coagulation outcomes, bleeding times and volumes: reduces bleeding
Shocked rats [5]; listed as concentrated fibrinogen
  coagulation outcomes, bleeding times and volumes: significantly improves coagulation outcomes and decreases uncontrolled bleeding times and volumes

## COC(=O)[C@@H](N)CCCNC(=N)N[N+](=O)[O-] [L-NAME, L-Nitro Arginine Methyl Ester]
[2]
  blockade of the L-Arginine effect in crystalloid resuscitation: blocked
Shocked rats [4]
  blockade of the L-Arginine effect with HBOC: this effect is blocked
Anesthetized rats [6]
  reversal of the L-Arg blood pressure effect by nitric oxide synthetase inhibitor: reversal
